Measured values reported in US8329739B2, “Phenylimidazole compounds” (Otsuka Pharmaceutical Factory, Inc., priority 2009, dated 2012).

Assays:
[1] = biological target: T1, LPL (lipoprotein lipase) (Mus musculus, UniProt P11152); assay: Confirmation test of LPL activation effect in mouse skeletal muscle cells (C2C12 cells); type: cell-based; conditions: 8 hours exposure, vs control group
T1 construct: endogenous in cells; host or cells: C2C12 cells, differentiated
T1 sequence (P11152 28-474): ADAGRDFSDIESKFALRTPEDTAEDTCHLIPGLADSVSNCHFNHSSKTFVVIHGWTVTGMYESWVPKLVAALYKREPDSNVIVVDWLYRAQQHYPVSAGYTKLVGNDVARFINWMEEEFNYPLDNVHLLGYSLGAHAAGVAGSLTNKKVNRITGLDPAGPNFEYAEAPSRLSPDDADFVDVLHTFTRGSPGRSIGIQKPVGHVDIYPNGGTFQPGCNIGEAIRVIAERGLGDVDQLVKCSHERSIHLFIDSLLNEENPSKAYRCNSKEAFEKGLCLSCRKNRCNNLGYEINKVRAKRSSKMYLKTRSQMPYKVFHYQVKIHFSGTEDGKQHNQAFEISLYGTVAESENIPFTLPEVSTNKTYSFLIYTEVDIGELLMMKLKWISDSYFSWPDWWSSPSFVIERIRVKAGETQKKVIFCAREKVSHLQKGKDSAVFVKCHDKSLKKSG
Method: Human skeletal muscle cells (human skeletal muscle myoblasts) or mouse skeletal muscle cells (C2C12 cells) that were seeded onto plates, cultured, and differentiated were exposed to a 0.3% dimethyl sulfoxide-containing culture medium in which the compound of the present invention was dissolved (concentration: 10 μM or 30 μM). The medium was removed 8 hours after exposure, 10 mM of Tris-HCl buffer (150 mM NaCl, 10 μ/mL; containing heparin sodium) was added to the cells, and the cells were incubated at 37° C. in the presence of 5% CO2 for 10 minutes. LPL activity in the supernatant was measured using an LPL activity assay kit (made by Roar Biomedical Inc.). LPL activity was evaluated based on the increase in fluorescence intensity 10 to 70 minutes after mixing the supernatant with the LPL substrate. The mean value of the increase in fluorescence intensity of the cells exposed to a 0.3% dimethyl sulfoxide-containing culture medium […] was used as mean value of the control group. Note that the compounds of Examples 18, 19, 32, 45 and 57 were tested using human skeletal muscle cells, and other compounds were tested using mouse skeletal muscle cells. The rate of increase (%) was calculated from the measured values of LPL activity in the control group and the experimental group, according to the following formula. Rate of increase in LPL activity (%)=[(mean value of the experimental group)−(mean value of the control group)]/(mean value of the control group)×100

| SMILES | Rate of increase in LPL activity ([1]; amount of addition 10 μM) [%] | Rate of increase in LPL activity ([1]; amount of addition 30 μM) [%] | melting point [°C] |
| --- | --- | --- | --- |
| COc1cc(-c2c[nH]c(-c3ccccc3)n2)ccc1OCc1ccc(Br)cc1F.Cl [Example 3] | 43 | 62 | 224 to 226 |
| COc1cc(-c2c[nH]c(-c3cccc(C(F)(F)F)c3)n2)ccc1OCc1ccc(C#N)cc1.Cl [Example 75] | 43 | 89 | 231 to 232 |
| COc1cc(OCc2ccc(Br)cc2F)ccc1-c1c[nH]c(-c2ccccc2C(F)(F)F)n1.Cl [Example 81] | 32 | 89 | 224 to 228 |
| COc1cc(OCc2ccccc2)ccc1-c1c[nH]c(C(C)C)n1 [Example 30] | 11 | 47 | 154 to 156 |
| COc1cc(OCc2ccccc2)ccc1-c1c[nH]c(-c2ccccc2)n1.Cl [Example 7] | 69 | 197 | 229 to 230 |
| COc1cc(OCc2ccccc2)ccc1-c1c[nH]c(-c2ccsc2)n1 [Example 24] | 59 | 77 | 188 to 192 |
| COc1cc(-c2c[nH]c(-c3ccc(F)cc3)n2)ccc1OCc1ccccc1 [Example 36] | 6 | 113 | 214 to 216 |
| COc1cc(-c2c[nH]c(-c3ccc(C)c(F)c3)n2)ccc1OCc1ccccc1.Cl [Example 16] | 54 | 119 | 236 to 237 |
| COC(=O)c1ccc(-c2nc(-c3ccc(OCc4ccc(Br)cc4F)cc3OC)c[nH]2)cc1 [Example 92] | 42 | 123 | 158 to 159 |
| COc1cc(-c2c[nH]c(-c3ccc(F)cc3)n2)ccc1OCc1ccccc1C#N [Example 50] | 20 | 70 | 204 to 206 |
| COc1cc(-c2c[nH]c(-c3cccs3)n2)ccc1OCc1ccc(Cl)cc1 [Example 31] | 10 | 38 | 197 to 200 |
| COC(=O)c1ccc(-c2nc(-c3ccc(OCc4ccccc4)c(OC)c3)c[nH]2)cc1.Cl [Example 38] | 35 | 100 | 222 to 227 |
| COc1cc(-c2c[nH]c(-c3ccc(C)cc3)n2)ccc1OCc1ccccc1.Cl [Example 5] | 14 | 42 | 244 to 245 |
| COc1cc(OCc2ccc(Br)cc2F)ccc1-c1c[nH]c(-c2cc(Cl)cc(Cl)c2)n1 [Example 91] | 28 | 95 | 260 to 265 |
| COc1cc(-c2c[nH]c(-c3ccc(F)cc3)n2)ccc1OCc1ccc(C#N)cc1 [Example 56] | 38 | 62 | 224 to 226 |
| COc1cc(OCc2ccccc2)ccc1-c1c[nH]c(-c2cccc(F)c2)n1.Cl [Example 54] | 18 | 87 | 231 to 235 |
| COc1cc(OCc2ccc(Br)cc2F)ccc1-c1c[nH]c(-c2cccc(C(F)(F)F)c2)n1.Cl [Example 58] | 45 | 150 | > 250 |
| COc1cc(-c2c[nH]c(-c3ccoc3)n2)ccc1OCc1ccccc1 [Example 26] | 31 | 51 | 177 to 179 |
| COc1cc(-c2c[nH]c(-c3ccccc3)n2)ccc1OCc1ccc(Cl)cc1 [Example 2] | 13 | 38 | 87 to 89 |
| COc1cc(OCc2ccc(C#N)cc2)ccc1-c1c[nH]c(-c2ccc(Cl)cc2)n1 [Example 76] | 115 | 263 | 186 to 187 |
| COc1cc(-c2c[nH]c(-c3ccc(Cl)cc3)n2)ccc1OCc1ccc(C#N)cc1 [Example 77] | 54 | 133 | 231 to 232 |
| COc1cc(OCc2ccc(Cl)cc2)ccc1-c1c[nH]c(-c2ccccc2)n1.Cl [Example 10] | 46 | 275 | 244 to 246 |
| COc1cc(-c2c[nH]c(-c3ccc(F)cc3)n2)ccc1OCc1cccc(C#N)c1.Cl [Example 61] | 53 | 92 | 242 to 244 |
| COc1cc(OCc2ccc(Cl)cc2)ccc1-c1c[nH]c(-c2cccc(F)c2)n1.Cl [Example 78] | 14 | 60 | 231 to 232 |
| COc1cc(OCc2ccc(Cl)cc2)ccc1-c1c[nH]c(-c2ccc(Cl)cc2)n1 [Example 82] | 27 | 86 | 181 to 184 |

More lines, now with the values ahead:

| Rate of increase in LPL activity ([1]; amount of addition 10 μM) [%] | Rate of increase in LPL activity ([1]; amount of addition 30 μM) [%] | melting point [°C] | SMILES |
| --- | --- | --- | --- |
| 27 | 63 | 154 to 157 | COc1cc(OCc2ccc(C#N)cc2)ccc1-c1c[nH]c(-c2cccc(Cl)c2)n1 [Example 97] |
| 113 | 270 | 247 to 249 | COc1cc(OCc2ccccc2)ccc1-c1c[nH]c(-c2cc(F)cc(F)c2)n1.Cl [Example 121] |
| 12 | 43 | 139 to 142 | COc1cccc(-c2nc(-c3ccc(OCc4ccc(C#N)cc4)cc3OC)c[nH]2)c1 [Example 100] |
| 93 | 113 | 242 to 245 | COc1cc(OCc2ccccc2)ccc1-c1c[nH]c(-c2ccc(Cl)c(Cl)c2)n1.Cl [Example 124] |
| 11 | 42 | 160 to 163 | COc1cc(OCc2ccccc2)ccc1-c1c[nH]c(-c2ccc(Cl)cc2)n1 [Example 123] |
| 12 | 77 | 219 to 222 | COc1cc(OCc2ccccc2)ccc1-c1c[nH]c(-c2ccc(C)cc2)n1 [Example 109] |
| 71 | 128 | 249 to 251 | COc1cc(OCc2ccc(Cl)cc2F)ccc1-c1c[nH]c(-c2ccccc2)n1.Cl [Example 139] |
| 99 | 297 | 159 to 162 | COc1cc(OCc2ccccc2)ccc1-c1c[nH]c(-c2cccc(C(F)(F)F)c2)n1 [Example 126] |
| 58 | 199 | 252 to 257 | COc1cc(OCc2ccc(Cl)cc2)ccc1-c1c[nH]c(-c2ccc(F)c(F)c2)n1 [Example 112] |
| 36 | 174 | 255 to 256 | COc1ccc(-c2nc(-c3ccc(OCc4ccc(Br)cc4F)cc3OC)c[nH]2)cc1OC.Cl [Example 93] |
| 63 | 236 | 259 to 260 | COc1cc(OCc2ccc(Cl)cc2F)ccc1-c1c[nH]c(-c2ccc(F)cc2)n1.Cl [Example 133] |
| 36 | 84 | 177 to 184 | COc1cc(OCc2ccc(C#N)cc2)ccc1-c1c[nH]c(-c2ccc(C(C)(C)C)cc2)n1 [Example 116] |
| 14 | 90 | 255 to 258 | COc1cccc(-c2nc(-c3ccc(OCc4ccc(Br)cc4F)cc3OC)c[nH]2)c1.Cl [Example 99] |
| 9 | 170 | 236 to 238 | COc1cccc(-c2nc(-c3ccc(OCc4ccccc4)cc3OC)c[nH]2)c1.Cl [Example 130] |
